# US20140221499A1, “NOVEL RODENT CONTROL AGENTS AND USES THEREOF” (priority 2011, published 2014)
# Assays:
# [1] = system: corticosterone levels in rat plasma; assay: Plasma corticosterone assay after odor exposure; type: in vivo; settings: 30 min exposure, 10% amine or 2% TMT, 1 ml, ±SEM
# Description: Avoidance to 2-phenylethylamine in rats was associated with acute changes in circulating levels of the stress hormone corticosterone.
# Plasma corticosterone assay. […] Corticosterone levels were measured in duplicate using a competitive radioactive binding assay as described previously (Pryce C R, Bettschen D, Bahr N I, & Feldon J (2001) Comparison of the effects of infant handling, isolation, and nonhandling on acoustic startle, prepulse inhibition, locomotion, and HPA activity in the adult rat. Behav Neurosci 115(1):71-83).
# rTAAR7b = target: T1, rTAAR7b (Rattus norvegicus, UniProt Q923X8); assay: CRE-SEAP reporter gene assay in HEK293 cells transfected with rTAAR7b; type: cell-based; set-up: Full Taar coding regions were cloned into pcDNA3.1; expressed in transfected cells; host or cells: HEK293; settings: FIG. 11A, rTAAR7b did not work with a 'Rho tag' (unmodified form), EC50 ± s.e.m., 4-parameter Hill equation
# T1 sequence (Q923X8 1-358): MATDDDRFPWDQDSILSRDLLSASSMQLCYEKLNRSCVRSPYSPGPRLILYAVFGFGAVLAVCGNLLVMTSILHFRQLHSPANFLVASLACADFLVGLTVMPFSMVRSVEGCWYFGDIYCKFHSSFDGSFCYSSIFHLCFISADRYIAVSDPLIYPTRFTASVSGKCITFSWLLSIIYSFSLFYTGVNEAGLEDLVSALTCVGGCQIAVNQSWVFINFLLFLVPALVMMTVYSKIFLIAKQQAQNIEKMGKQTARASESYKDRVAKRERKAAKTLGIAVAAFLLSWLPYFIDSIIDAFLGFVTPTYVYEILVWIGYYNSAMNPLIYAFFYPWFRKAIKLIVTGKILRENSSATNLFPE
# Description: FIG. 11 illustrates the dose-dependent responses of TAARs to amines. HEK293 cells were cotransfected with plasmids encoding CRE-SEAP and rTAARs (a) or mTAARs (b), incubated with concentrations of ligands indicated, and assayed for reporter activity (triplicates±s.d.). EC50 values (±s.e.m, bottom right) were calculated using SigmaPlot (Systat Software) and a 4-parameter Hill equation.
# The following mixes (10 μM of each indicated compounds) were tested for their ability to activate rat TAARs. Mix 1: butylamine, dibutylamine, hexylamine. Mix 2: 2-aminopentane, isoamylamine, isobutylamine, isopropylamine. Mix 3: N,N-dimethylcyclohexylamine, 1-methylindole, tryptamine, phenylethylamine. Mix 4: indole, 1-methylpyrrolidine, 1-methylpiperidine, pyrrolidine. […]
# Full Taar coding regions were cloned into pcDNA3.1-(Invitrogen) with or without a 5′ DNA extension of 69 bp encoding the first 20 amino acids of bovine rhodopsin followed by a cloning linker ([…]). […] Fluorescence was measured on an EnVision plate reader (Perkin Elmer) and SEAP activity graphed as relative fluorescence of a phosphatase substrate.
# Here, we set out to identify agonists for additional mouse and rat TAARs. […] Transfected cells were incubated with test chemicals, and phosphatase activity was quantified with a fluorescent substrate as a reporter for TAAR activation. […]
Compound,plasma levels of corticosterone [1],EC50 (rTAAR7b)
NCCc1ccccc1 [2-phenylethylamine],194 ± 18 ng/mL,–
"CN(C)C1CCCCC1 [N,N-DIMETHYLCYCLOHEXYLAMINE, N,N-dimethylcyclohexylamine]",–,33.2 ± 12.8 µM
